The record followed here is ChEMBL document CHEMBL5113413, “New peptidomimetic rhodesain inhibitors with improved selectivity towards human cathepsins” (Eur J Med Chem, 2022).

The structures appear in SMILES notation. Activity calls are given as the source filed them. No cut-off for these calls is given here.

The target in data set [1] is Rhodesain (Trypanosoma brucei rhodesiense) (UniProt Q95PM0). As to the kind of experiment: Inhibition of Trypanosoma brucei rhodesiense rhodesain at 20 uM using Cbz-Phe-Arg-AMC as fluorogenic substrate by fluorometric assay.
Data set [2] deals with T1, Procathepsin L (Homo sapiens, UniProt P07711). Briefly: Irreversible inhibition of human Cathepsin L assessed as inhibition constant using Cbz-Phe-Arg-AMC as fluorogenic substrate by fluorometric assay.
Target sequence in this assay (P07711 whole entry): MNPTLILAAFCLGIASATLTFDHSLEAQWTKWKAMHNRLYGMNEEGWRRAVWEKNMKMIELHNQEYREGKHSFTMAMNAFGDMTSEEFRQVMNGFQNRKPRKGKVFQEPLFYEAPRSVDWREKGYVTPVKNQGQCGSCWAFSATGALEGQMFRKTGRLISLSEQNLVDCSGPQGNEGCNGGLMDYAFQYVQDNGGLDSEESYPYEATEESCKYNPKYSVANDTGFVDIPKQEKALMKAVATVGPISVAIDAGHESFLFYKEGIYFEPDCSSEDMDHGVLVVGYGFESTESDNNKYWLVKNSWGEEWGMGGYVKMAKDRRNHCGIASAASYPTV
For a further data set, the target named is Rhodesain (Trypanosoma brucei rhodesiense, UniProt Q95PM0). Briefly: Irreversible inhibition of Trypanosoma brucei rhodesiense rhodesain assessed as inhibition constant using Cbz-Phe-Arg-AMC as fluorogenic substrate by fluorometric assay.
Data set [3] deals with T2, 20S proteasome (Homo sapiens) (UniProt P49721+P20618+P28074+P28062+P28065+P28072+P25786+P25787+P25788+P25789+P28066+P60900+O14818+Q8TAA3+P40306+A5LHX3+P49720+P28070+Q99436). As to the kind of experiment: Inhibition of human 20S proteasome chymotrypsin-like activity at 11 uM using Succ-Leu-Leu-Val-Tyr-AMC as fluorogenic substrate by fluorometric assay. It is filed as protein-complex assay.

Data set [4] has as its target T2, 20S proteasome (Homo sapiens). Briefly: Inhibition of human 20S proteasome caspase-like activity at 11 uM using Cbz-Leu-Leu-Glu-AMC as fluorogenic substrate by fluorometric assay. It is filed as protein-complex assay.
The subject of data set [5] is Trypanosoma brucei brucei. Briefly: Antitrypanosomal activity against Trypanosoma brucei brucei BS449 assessed as luminescence incubated for 48 hrs by ATPlite assay. The format is functional, organism-based. The conditions noted are these: BS449, 48 h. A general note: ATP-based viability assays read luminescence as a measure of living cells.
The target in data set [6] is T2, 20S proteasome (Homo sapiens). As to the kind of experiment: Inhibition of human 20S proteasome trypsin-like activity at 11 uM using Boc-Leu-Arg-Arg-AMC as fluorogenic substrate by fluorometric assay. It is filed as protein-complex assay.
For data set [7], the target named is T3, Cathepsin B (Homo sapiens, UniProt P07858). As to the kind of experiment: Irreversible inhibition of human Cathepsin B assessed as inhibition constant using Cbz-Phe-Arg-AMC as fluorogenic substrate by fluorometric assay.
Data set [8] is described as follows: Cytotoxicity against mouse J774.1 cells assessed as reduction in cell viability incubated for 48 hrs by MTT assay. It is filed as toxicity, cell-based. (In general: Tetrazolium dyes change colour on reduction, which living cells bring about.)
Data set [9] addresses T3, Cathepsin B. Briefly: Inhibition of human Cathepsin B at 20 uM using Cbz-Phe-Arg-AMC as fluorogenic substrate by fluorometric assay.
Data set [10] deals with Rhodesain (Trypanosoma brucei rhodesiense) (UniProt Q95PM0). Briefly: Irreversible inhibition of Trypanosoma brucei rhodesiense rhodesain assessed as no recovery of enzyme activity preincubated for 30 mins followed by substrate addition using Cbz-Phe-Arg-AMC as fluorogenic substrate by fluorometric 100-fold dilution assay.
The target is the same in data set [11]. As to the kind of experiment: Reversible inhibition of Trypanosoma brucei rhodesiense rhodesain assessed as recovery of enzyme activity preincubated for 30 mins followed by substrate addition using Cbz-Phe-Arg-AMC as fluorogenic substrate by fluorometric 100-fold dilution assay.
In data set [12] the target is T1, Procathepsin L. As to the kind of experiment: Inhibition of human Cathepsin L at 20 uM using Cbz-Phe-Arg-AMC as fluorogenic substrate by fluorometric assay.
Target sequence in this assay (P07711 114-333 limits assumed): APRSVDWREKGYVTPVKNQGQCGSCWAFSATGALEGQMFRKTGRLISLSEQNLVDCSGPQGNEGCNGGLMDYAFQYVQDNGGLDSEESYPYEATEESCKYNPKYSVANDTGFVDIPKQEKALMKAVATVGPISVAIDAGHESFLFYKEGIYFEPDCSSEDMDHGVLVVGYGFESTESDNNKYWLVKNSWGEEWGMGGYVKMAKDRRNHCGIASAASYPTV

Sequence of Rhodesain (Trypanosoma brucei rhodesiense) (Q95PM0 1-450): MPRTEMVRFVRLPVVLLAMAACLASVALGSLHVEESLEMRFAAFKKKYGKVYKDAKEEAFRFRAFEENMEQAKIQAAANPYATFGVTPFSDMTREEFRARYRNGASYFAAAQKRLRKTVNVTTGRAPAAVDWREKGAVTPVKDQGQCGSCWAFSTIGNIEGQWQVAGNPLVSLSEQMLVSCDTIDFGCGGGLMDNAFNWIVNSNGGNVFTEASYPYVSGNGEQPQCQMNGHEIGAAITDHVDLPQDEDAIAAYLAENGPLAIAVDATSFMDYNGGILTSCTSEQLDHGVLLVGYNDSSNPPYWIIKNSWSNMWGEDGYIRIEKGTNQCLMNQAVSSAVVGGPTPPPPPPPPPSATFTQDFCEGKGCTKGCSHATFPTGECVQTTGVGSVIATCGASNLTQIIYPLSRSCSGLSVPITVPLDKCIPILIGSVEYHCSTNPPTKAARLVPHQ
Sequence of Rhodesain (Q95PM0 whole entry): as the sequence (Q95PM0 1-450) above

One may read the inhibition as the relative decrease from the control value, in per cent. In the case of `CN1CCN(C(=O)NCc2ccccc2C(=O)N[C@H](/C=C(\F)S(=O)(=O)c2ccccc2)CCc2ccccc2)CC1`, in [1], the inhibition came to 18%.
A word on the EC50: it is the concentration that produces a half-maximal response. One may read the CC50 as the concentration giving 50% cytotoxicity. Turning to `O=C(NCc1ccccc1C(=O)N[C@H](/C=C/S(=O)(=O)c1ccccc1)CCc1ccccc1)c1ccccc1`, the Ki on Procathepsin L [2] came out at 1490 nM; at Rhodesain, 100 nM; at Cathepsin B [7] it was 1980 nM. Further, the inhibition in data set [3] stood at 14%; in data set [4], 39%; in data set [6], 23%. The EC50 in [5] came to 3.6 µM. Besides, the CC50 at 48 h in [8] was > 100 µM.
Consider `O=C(NCc1ccccc1C(=O)N[C@H](/C=C(\F)S(=O)(=O)Oc1ccccc1)CCc1ccccc1)c1ccc2c(c1)OCCO2`, for which the figures for the inhibition at Cathepsin B [9] and on Procathepsin L [12] were < 10% and 23%, respectively. In addition, the inhibition result in [10] and in [11] was “Active” in each case. On Rhodesain, the Ki came to 379 nM. For the same molecule, the half-maximal effective concentration (EC50) in data set [5] is 3 µM. In addition, the CC50 at 48 h in data set [8] is > 100 µM.
Turning to `O=C(NCc1ccccc1C(=O)N[C@H](/C=C(\F)S(=O)(=O)c1ccccc1)CCc1ccccc1)c1ccc2c(c1)OCCO2`, the inhibition on Cathepsin B [9] is < 10%; on Procathepsin L [12], 31%; in data set [4], 34%; in data set [6] it was 14%. The inhibition entry in data set [10] and in data set [11] was “Active” each time. Moreover, on Rhodesain, the Ki worked out at 339 nM.
